Assay in all cases: NCI-60 cell line screen, 48 h
The subject of test [1] is NCI-H226 lung.
Test [2] relates to SNB-75 CNS.
In test [3] the test system is NCI-H522 lung.
Test [4] concerns NCI-H460 lung.
For test [5], the system named is SK-MEL-28 melanoma.
The subject of test [6] is SK-MEL-5 melanoma.
The subject of test [7] is SW-620 colon.
Test [8] relates to SK-MEL-2 melanoma.
The subject of test [9] is OVCAR-8 ovarian.
Test [10] relates to HT29 colon.
Test [11] relates to HL-60(TB) leukemia.
In test [12] the test system is OVCAR-4 ovarian.
Test [13] deals with NCI-H23 lung.
The subject of test [14] is SF-268 CNS.
The test system of test [15] is MOLT-4 leukemia.
In test [16] the test system is UACC-62 melanoma.
The test system of test [17] is HOP-92 NSCLC.
Test [18] relates to SF-539 CNS.
The test system of test [19] is ACHN renal.
Test [20] relates to SNB-19 CNS.

Four compounds from PubChem BioAssay (NCI) can be followed below.

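Cells were grown in 96-well plates and exposed to each compound for 48 hours at five concentrations; endpoints were interpolated linearly between bracketing concentrations, or set to the highest concentration if not reached. TGI is the concentration that stops growth completely.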

As for `Nc1ccc2cc(S(=O)(=O)O)cc(O)c2c1N=Nc1ccc(NC(=O)Nc2ccc(N=Nc3c(N)ccc4cc(S(=O)(=O)O)cc(O)c34)c(S(=O)(=O)O)c2)cc1S(=O)(=O)O`, the TGI in test [1], in test [2], in test [3], in test [4], in test [5] and in test [6] was over 100 µM in each case. Also, the TGI in test [7], in [8], in [9], in test [10], in test [11] and in test [12] was over 100 µM in each case. Besides, the TGI in test [13], in test [14], in test [15], in [16], in [17] and in test [18] was over 100 µM in each case.

For `CN1C[C@H]2[C@@H](C1=O)[C@H](c1ccc([N+](=O)[O-])cc1)ON2C`, the TGI in test [1], in [3], in test [4], in test [19], in test [5] and in test [6] was over 100 µM in each case. The TGI in test [7], in [8], in [9], in [10], in test [20] and in [11] was over 100 µM throughout. In addition, the TGI in test [12], in test [13], in [15] and in [17] was over 100 µM each time.

Regarding `COc1cc(C2C(Cl)C(=O)N2NC(=O)c2ccc(NC(C)=O)cc2)cc(Br)c1O` (configuration not stated), the TGI in test [1], in [2], in [3], in [4], in [19] and in test [5] was over 100 µM in each case. The TGI in test [6], in [7], in [8], in test [9], in [10] and in test [20] was over 100 µM in each case. In addition, the TGI in test [11], in [13], in [14], in test [15], in [16] and in [17] was over 100 µM in each case. This compound displayed a TGI in test [18] of over 100 µM.

With `COc1ccc(N2C(=O)C3c4[nH]c5ccccc5c4C4CCCCCCCC4C3C2=O)cc1` (configuration not stated), the TGI in test [1], in test [2], in test [3], in [4], in [19] and in [5] was over 10 µM throughout. In addition, the TGI in test [6], in test [7], in [8], in test [9], in [10] and in test [20] was over 10 µM throughout. For the same compound, the TGI in test [11], in test [12], in test [13], in test [14], in test [15] and in [16] was over 10 µM in each case. In test [18], the TGI was over 10 µM.
